In brackets after ≈: the same amount, converted by molar mass. Bounds are passed on as bounds.

Common to all, as to type: cell-based
Assay [1] relates to Proteus vulgaris TB-615. As to the kind of experiment: MIC (Table 2). To be noted: TB615, tobramycin resistant strain, read-out: Minimum Inhibitory Concentration (MIC).
In assay [2] the test system is Staphylococcus epidermidis TB-775. Description: MIC (Table 2). To be noted: TB775, tobramycin resistant strain, read-out: Minimum Inhibitory Concentration (MIC).
For assay [3], the system named is Pseudomonas aeruginosa TB-151. Description: MIC (Table 2). As to conditions: TB151, tobramycin resistant strain, read-out: Minimum Inhibitory Concentration (MIC).
For assay [4], the system named is Staphylococcus epidermidis TB-302. As to the kind of experiment: MIC (Table 2). To be noted: TB302, tobramycin resistant strain, read-out: Minimum Inhibitory Concentration (MIC).
The subject of assay [5] is Pseudomonas aeruginosa TB-121. As to the kind of experiment: MIC (Table 2). As to conditions: TB121, tobramycin resistant strain, read-out: Minimum Inhibitory Concentration (MIC).
In assay [6] the test system is Pseudomonas aeruginosa TB-151. Description: MIC (Table 3). To be noted: TB151, read-out: Minimum Inhibitory Concentration (MIC).
The test system of assay [7] is Pseudomonas aerginosa TB-121. Description: MIC (Table 3). To be noted: TB121, read-out: Minimum Inhibitory Concentration (MIC).
For assay [8], the system named is Staphylococcus epidermidis TB-775. Description: MIC (Table 3). As to conditions: TB775, read-out: Minimum Inhibitory Concentration (MIC).
Assay [9] deals with Proteus vulgaris TB-615. Description: MIC (Table 3). As to conditions: TB615, read-out: Minimum Inhibitory Concentration (MIC).

Consider `NC[C@H]1O[C@H](O[C@H]2[C@H](O)[C@@H](O[C@H]3O[C@H](CO)[C@@H](O)[C@H](N)[C@H]3O)[C@H](NC(=O)C3(O)CNC3)C[C@@H]2N)[C@H](N)C[C@@H]1O` [Comp. (1), 1-N-(3-hydroxyazetidine-3-carbonyl)tobramycin], for which the MIC in the assay with Proteus vulgaris TB-615 [1] is 6.25 µg/mL (≈ 11 µM); in [2] it was greater than 100 µg/mL; in [3], 3.13 µg/mL (≈ 5.52 µM); in [4], 12.5 µg/mL (≈ 22.1 µM); in [5], 25 µg/mL (≈ 44.1 µM).
In the same order, the values of `NC[C@H]1O[C@H](O[C@H]2[C@H](O)[C@@H](O[C@H]3O[C@H](CO)[C@@H](O)[C@H](N)[C@H]3O)[C@H](NC(=O)C3(O)CNC3)C[C@@H]2N)[C@H](O)[C@@H](O)[C@@H]1O` [Comp. (2), 1-N-(3-hydroxyazetidine-3-carbonyl)kanamycin A] are 6.25 µg/mL (≈ 10.7 µM), 50 µg/mL (≈ 85.7 µM), 6.25 µg/mL (≈ 10.7 µM), 6.25 µg/mL (≈ 10.7 µM) and 25 µg/mL (≈ 42.8 µM).
In the same order, the values of `NC[C@H]1O[C@H](O[C@H]2[C@H](O)[C@@H](O[C@H]3O[C@H](CO)[C@@H](O)[C@H](N)[C@H]3O)[C@H](N)C[C@@H]2N)[C@H](O)[C@@H](O)[C@@H]1O` [KM-A, kanamycin A] are 100 µg/mL (≈ 206 µM), greater than 100 µg/mL, greater than 100 µg/mL, 12.5 µg/mL (≈ 25.8 µM) and greater than 100 µg/mL.
Take `NC[C@H]1O[C@H](O[C@H]2[C@H](O)[C@@H](O[C@H]3O[C@H](CO)[C@@H](O)[C@H](N)[C@H]3O)[C@H](N)C[C@@H]2N)[C@H](N)C[C@@H]1O` [TOB, tobramycin]: the MIC in assay [6] is 25 µg/mL (≈ 53.5 µM); with Proteus vulgaris TB-615 [1], 50 µg/mL (≈ 107 µM); in assay [7], 25 µg/mL (≈ 53.5 µM); in [2], greater than 100 µg/mL; in [8] it was 100 µg/mL (≈ 214 µM); in the assay on Proteus vulgaris TB-615 [9], 50 µg/mL (≈ 107 µM). The figures for the MIC in assay [3], in assay [4] and in assay [5] were 100 µg/mL (≈ 214 µM), 25 µg/mL (≈ 53.5 µM) and 100 µg/mL (≈ 214 µM), respectively.
